Residue numbers refer to the chain shown, from its start. Several values for one entry are separate records, joined by “and”; a condition that tells them apart may be missing. Identical values can stand only once. Entries after “also recorded” stand apart in the source; their conditions may differ.
Tests used:
A3AR Y15A^1.35 = biological target: T1, A3AR Y15A^1.35 (Homo sapiens, UniProt P0DMS8, Y15A); assay: Gαi1 activation, TruPath BRET assay in HEK293a cells; type: cell-based
T1 construct: expressed in transfected cells; host or cells: HEK293a
T1 sequence (P0DMS8 1-318 Y15A): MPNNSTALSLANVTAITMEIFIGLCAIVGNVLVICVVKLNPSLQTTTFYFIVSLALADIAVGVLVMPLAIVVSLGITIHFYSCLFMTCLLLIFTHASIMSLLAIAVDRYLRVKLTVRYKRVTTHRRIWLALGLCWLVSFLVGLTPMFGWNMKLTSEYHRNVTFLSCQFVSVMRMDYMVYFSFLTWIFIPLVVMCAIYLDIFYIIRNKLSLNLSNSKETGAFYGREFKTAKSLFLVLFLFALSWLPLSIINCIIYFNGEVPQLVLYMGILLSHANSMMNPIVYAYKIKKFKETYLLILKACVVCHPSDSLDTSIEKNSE
Procedure: (§1) PEI was added at a 6:1 PEI-to-DNA ratio. Two days post-transfection, plates were washed twice with BRET buffer (HBSS with 10 mM HEPES, pH 7.4). After a 30-min incubation at 37 °C, plates were placed in a PHERAstar plate reader at 37 °C, and four baseline readings were taken using BRET2 filters at 410 ± 80 nm and 515 ± 30 nm. […] BRET2 ratios were calculated as the ratio of GFP2 emission (515 ± 30 nm) to RLuc8 emission (410 ± 80 nm).
(§2) Data were expressed as the mean ± standard error. All binding and Trupath data were analysed using the nonlinear regression curve-fitting programme with Prism 10 (GraphPad, San Diego, CA, USA). For nanoBRET saturation binding experiments, specific binding was calculated by subtracting non-specific binding (defined as binding in the presence of 10 µM MRS1220) from total binding. Specific binding data in each experiment were then normalised to the maximal binding (Bmax) of WT and fit to a one-site specific binding equation: Y =Bmax*[X]/(Kd + [X]). For nanoBRET competition binding experiments, data were normalised to total and non-specific binding responses and fit to a one-site—Fit Ki equation. Trupath's experimental data was baseline-corrected to the initial four baseline reads and then adjusted to the buffer control response. The area under the curve (AUC) for each response was calculated and plotted with a non-linear regression curve (log[agonist] vs response, three-parameter model), using the equation: Y = Bottom + (Top–Bottom)/(1 + 10^((LogEC50-X))). Here, X represents the log dose of the agonist, Y is the BRET2 AUC response, Top and Bottom are the curve plateaus, and EC50 is the agonist concentration yielding a response halfway between the Bottom and Top values. To determine efficacy values. The efficacy of the agonists (τA) was separately calculated using the Black–Leff operational model of agonism[79] using KA values from Table 2 and then corrected for receptor expression relative to WT using Bmax values from Table 1[80]. Significant differences vs WT were determined by one-way ANOVA with a Dunnett’s multiple comparison test. Significance levels are indicated as follows: P ≤ 0.0001****, P = 0.0001–0.001***, P = 0.001–0.01**, and P = 0.01–0.05*.

A3AR S73A^2.65 = biological target: T2, A3AR S73A^2.65 (Homo sapiens, UniProt P0DMS8, S73A); assay: as above; type: cell-based
T2 construct: expressed in transfected cells; host or cells: HEK293a
Procedure: (§3) Two days post-transfection, plates were washed twice with BRET buffer (HBSS with 10 mM HEPES, pH 7.4). After a 30-min incubation at 37 °C, plates were placed in a PHERAstar plate reader at 37 °C, and four baseline readings were taken using BRET2 filters at 410 ± 80 nm and 515 ± 30 nm. […] BRET2 ratios were calculated as the ratio of GFP2 emission (515 ± 30 nm) to RLuc8 emission (410 ± 80 nm).
(§4) Data were expressed as the mean ± standard error. All binding and Trupath data were analysed using the nonlinear regression curve-fitting programme with Prism 10 (GraphPad, San Diego, CA, USA). […] Trupath's experimental data was baseline-corrected to the initial four baseline reads and then adjusted to the buffer control response. The area under the curve (AUC) for each response was calculated and plotted with a non-linear regression curve (log[agonist] vs response, three-parameter model), using the equation: Y = Bottom + (Top–Bottom)/(1 + 10^((LogEC50-X))). Here, X represents the log dose of the agonist, Y is the BRET2 AUC response, Top and Bottom are the curve plateaus, and EC50 is the agonist concentration yielding a response halfway between the Bottom and Top values. […] Significant differences vs WT were determined by one-way ANOVA with a Dunnett’s multiple comparison test.

A3AR H95F^3.37 = biological target: T3, A3AR H95F^3.37 (Homo sapiens, UniProt P0DMS8, H95F); assay: as above; type: cell-based
T3 construct: expressed in transfected cells; host or cells: HEK293a
T3 sequence (P0DMS8 1-318 H95F): T1 sequence (P0DMS8 1-318 Y15A) with A15Y, H95F
Procedure: as §1, §2

A3AR V169E^45.53 = biological target: T4, A3AR V169E^45.53 (Homo sapiens, UniProt P0DMS8, V169E); assay: as above; type: cell-based
T4 construct: expressed in transfected cells; host or cells: HEK293a
Procedure: as §3, §4

A3AR M174A^5.35 = biological target: T5, A3AR M174A^5.35 (Homo sapiens, UniProt P0DMS8, M174A); assay: as above; type: cell-based
T5 construct: expressed in transfected cells; host or cells: HEK293a
Procedure: as §3, §4

A3AR Y265A^7.36 = biological target: T6, A3AR Y265A^7.36 (Homo sapiens, UniProt P0DMS8, Y265A); assay: as above; type: cell-based
T6 construct: expressed in transfected cells; host or cells: HEK293a
Procedure: PEI was added at a 6:1 PEI-to-DNA ratio.
Data were expressed as the mean ± standard error. All binding and Trupath data were analysed using the nonlinear regression curve-fitting programme with Prism 10 (GraphPad, San Diego, CA, USA). For nanoBRET saturation binding experiments, specific binding was calculated by subtracting non-specific binding (defined as binding in the presence of 10 µM MRS1220) from total binding. Specific binding data in each experiment were then normalised to the maximal binding (Bmax) of WT and fit to a one-site specific binding equation: Y =Bmax*[X]/(Kd + [X]). For nanoBRET competition binding experiments, data were normalised to total and non-specific binding responses and fit to a one-site—Fit Ki equation. Trupath's experimental data was baseline-corrected to the initial four baseline reads and then adjusted to the buffer control response. The area under the curve (AUC) for each response was calculated and plotted with a non-linear regression curve (log[agonist] vs response, three-parameter model), using the equation: Y = Bottom + (Top–Bottom)/(1 + 10^((LogEC50-X))). […] Significant differences vs WT were determined by one-way ANOVA with a Dunnett’s multiple comparison test. […]

A3AR N250A^6.55 = biological target: T7, A3AR N250A^6.55 (Homo sapiens, UniProt P0DMS8, N250A); assay: as above; type: cell-based
T7 construct: expressed in transfected cells; host or cells: HEK293a
T7 sequence (P0DMS8 1-318 N250A): T1 sequence (P0DMS8 1-318 Y15A) with A15Y, N250A
Procedure: as §1, §2

A3AR-BRIL-S97R = biological target: T8, A3AR-BRIL-S97R (Homo sapiens, UniProt P0DMS8, N160A/S97R, form not given); assay: NanoBRET competition binding vs XAC-630; conditions: for XAC-630 NanoBRET binding, normalised (Figure S2H), individual replicates: A3AR-BRIL-S97R
T8 sequence (P0DMS8 1-318 S97R/N160A): T1 sequence (P0DMS8 1-318 Y15A) with A15Y, S97R, N160A

[1] = system: Nluc-tagged hA3AR-BRIL-S97R; assay: NanoBRET washout (irreversible binding) assay vs XAC-630

T4 sequence (P0DMS8 whole entry V169E): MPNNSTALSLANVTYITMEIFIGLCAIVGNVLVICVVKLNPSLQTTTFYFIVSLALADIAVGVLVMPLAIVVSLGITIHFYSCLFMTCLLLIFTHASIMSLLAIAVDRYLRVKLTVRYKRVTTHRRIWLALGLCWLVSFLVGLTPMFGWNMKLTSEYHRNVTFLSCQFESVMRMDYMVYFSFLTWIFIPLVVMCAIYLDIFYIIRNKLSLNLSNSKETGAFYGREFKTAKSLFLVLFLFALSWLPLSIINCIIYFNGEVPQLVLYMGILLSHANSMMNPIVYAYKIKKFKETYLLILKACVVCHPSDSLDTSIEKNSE
T5 sequence (P0DMS8 whole entry M174A): as the sequence (P0DMS8 whole entry V169E) above, with E169V, M174A counted along it
T2 sequence (P0DMS8 whole entry S73A): as the sequence (P0DMS8 whole entry V169E) above, with S73A, E169V counted along it
T6 sequence (P0DMS8 whole entry Y265A): as the sequence (P0DMS8 whole entry V169E) above, with E169V, Y265A counted along it

Compound: Nc1ncnc2c1ncn2[C@@H]1O[C@H](CO)[C@@H](O)[C@H]1O [Adenosine, adenosine]
- log τ (efficacy, operational model, corrected for receptor expression) (A3AR Y15A^1.35): 0.6 ± 0.3
- ∆∆BRET Emax (A3AR Y15A^1.35): 0.19 ± 0.02
- Gαi1 activation response (Figure 7F), individual replicates (A3AR Y15A^1.35; log [agonist] -3): 0.171 and 0.1858 and 0.1817
- Gαi1 activation response (Figure 7F), individual replicates (A3AR Y15A^1.35; log [agonist] -4): 0.1266 and 0.1086 and 0.09084
- Gαi1 activation response (Figure 7F), individual replicates (A3AR Y15A^1.35; log [agonist] -5): 0.08727 and 0.0349 and 0.02463
- Gαi1 activation response (Figure 7F), individual replicates (A3AR Y15A^1.35; log [agonist] -6): 0.02891 and 0.02444 and 0.02972
- Gαi1 activation response (Figure 7F), individual replicates (A3AR Y15A^1.35; log [agonist] -7): 0.01513 and 0.03836 and 0.02349
- Gαi1 activation response (Figure 7F), individual replicates (A3AR Y15A^1.35; log [agonist] -8): 0.0199 and 0.02219 and 0.02387
- Gαi1 activation response (Figure 7F), individual replicates (A3AR Y15A^1.35; log [agonist] -9): 0.02702 and 0.04406 and 0.02415
- log τ (efficacy, operational model, corrected for receptor expression) (A3AR S73A^2.65): 1.4 ± 0.07
- ∆∆BRET Emax (A3AR S73A^2.65): 1.49 ± 0.04
- log τ (efficacy, operational model, corrected for receptor expression) (A3AR H95F^3.37): N.R.
- ∆∆BRET Emax (A3AR H95F^3.37): N.R
- Gαi1 activation response (Figure 7F), individual replicates (A3AR H95F^3.37; log [agonist] -3): 0.03876 and 0.1313 and 0.08684
- Gαi1 activation response (Figure 7F), individual replicates (A3AR H95F^3.37; log [agonist] -4): 0.03491 and 0.05099 and 0.06294
- Gαi1 activation response (Figure 7F), individual replicates (A3AR H95F^3.37; log [agonist] -5): 0.01638 and 0.04515 and 0.03044
- Gαi1 activation response (Figure 7F), individual replicates (A3AR H95F^3.37; log [agonist] -6): 0.01795 and 0.02273 and 0.02037
- Gαi1 activation response (Figure 7F), individual replicates (A3AR H95F^3.37; log [agonist] -7): 0.02917 and 0.01651 and 0.04473
- Gαi1 activation response (Figure 7F), individual replicates (A3AR H95F^3.37; log [agonist] -8): 0.01844 and 0.06153 and 0.04217
- Gαi1 activation response (Figure 7F), individual replicates (A3AR H95F^3.37; log [agonist] -9): 0.02564 and 0.03775 and 0.0773
- log τ (efficacy, operational model, corrected for receptor expression) (A3AR V169E^45.53): 1.6 ± 0.1
- ∆∆BRET Emax (A3AR V169E^45.53): 0.67 ± 0.02
- log τ (efficacy, operational model, corrected for receptor expression) (A3AR M174A^5.35): -0.1 ± 0.2
- ∆∆BRET Emax (A3AR M174A^5.35): 1.35 ± 0.01
- log τ (efficacy, operational model, corrected for receptor expression) (A3AR Y265A^7.36): 1.4 ± 0.07
- ∆∆BRET Emax (A3AR Y265A^7.36): 1.25 ± 0.04
- log τ (efficacy, operational model, corrected for receptor expression) (A3AR N250A^6.55): N.R.
- ∆∆BRET Emax (A3AR N250A^6.55): N.R
- Gαi1 activation response (Figure 7F), individual replicates (A3AR N250A^6.55; log [agonist] -3): 0.1982 and 0.05834 and 0.1787
- Gαi1 activation response (Figure 7F), individual replicates (A3AR N250A^6.55; log [agonist] -4): 0.07983 and 0.02674 and 0.09536
- Gαi1 activation response (Figure 7F), individual replicates (A3AR N250A^6.55; log [agonist] -6): 0.1133 and 0.01975
- Gαi1 activation response (Figure 7F), individual replicates (A3AR N250A^6.55; log [agonist] -7): 0.04263 and 0.06697 and 0.05413
- Gαi1 activation response (Figure 7F), individual replicates (A3AR N250A^6.55; log [agonist] -8): 0.04211 and 0.09403 and 0.02948
- Gαi1 activation response (Figure 7F), individual replicates (A3AR N250A^6.55; log [agonist] -9): 0.09604 and 0.06365 and 0.0751

Compound: CCCn1c(=O)c2c(nc3cc(OC)ccn32)n(CCCCNC(=O)c2ccc(S(=O)(=O)F)cc2)c1=O [LUF7602]
- pKi Mean (Figure S2H) (A3AR-BRIL-S97R; BRIL-S97R, n 3): 7.024
- XAC-630 NanoBRET binding, normalised (Figure S2H), individual replicates (A3AR-BRIL-S97R; log LUF7602 -5): 0
- XAC-630 NanoBRET binding, normalised (Figure S2H), individual replicates (A3AR-BRIL-S97R; log LUF7602 -6): 19.3899 and 25.983 and 15.2236
- XAC-630 NanoBRET binding, normalised (Figure S2H), individual replicates (A3AR-BRIL-S97R; log LUF7602 -7): 80.7723 and 57.132 and 87.3086
- XAC-630 NanoBRET binding, normalised (Figure S2H), individual replicates (A3AR-BRIL-S97R; log LUF7602 -8): 99.2468 and 73.5169 and 111.113
- XAC-630 NanoBRET binding, normalised (Figure S2H), individual replicates (A3AR-BRIL-S97R; log LUF7602 -9): 98.8814 and 81.6512 and 110.04
- XAC-630 NanoBRET binding, normalised (Figure S2H), individual replicates (A3AR-BRIL-S97R; log LUF7602 -10): 102.286 and 79.8771 and 109.058
- inhibition of XAC-630 binding after 4x washout ([1]; 10 μM, 4 h, 4 washing steps): wash-resistant inhibition; also recorded: retained inhibition
- rebinding of XAC-630 in the washout experiments ([1]; 10 μM, 4 h, 4 washing steps): ~ 15%
- NanoBRET washout assay, normalised signal (Figure S2G), individual replicates ([1]; 4 x Wash): 12.3969 and 12.724 and 15.9645 and 7.178
- NanoBRET washout assay, normalised signal (Figure S2G), individual replicates ([1]; Control (no wash)): 1.693 and 0.891 and -0.3357 and 2.202

From publication PMC12361428 (Nature Communications, 2025)
